Experimental findings from US9051345B2, “Metalloinsertor complexes targeted to DNA mismatches” (CALIFORNIA INSTITUTE OF TECHNOLOGY, priority 2011, dated 2015) are described below.

One data set concerns HCT116N cells. Put plainly: MTT cytotoxicity assay. Format: cell-based, human. Conditions: 72 hours. The procedure:
Cytotoxicity assays were performed as described in Mosmann, 1983, J. Immunol. Methods, 65, 55-63, the entire contents of which is incorporated herein by reference. HCT116N and HCT116O cells were plated in 96-well plates at 50,000 cells/well and incubated with rhodium for the durations specified. After incubation with the indicated rhodium complexes, cells were labeled with MTT for 4 hours at 37° C. under 5% CO2 and humidified atmosphere. The resulting formazan crystals were dissolved with solubilizing reagent purchased from Roche according to the manufacturer's instructions. The dissolved formazan was quantified as the absorbance at 570 nm minus the background absorbance at 690 nm. Percent viability was determined as the ratio of the amount of formazan in the treated cells to that of the untreated cells.
In order to elucidate the mechanism of action for the cytotoxicity caused by a metalloinsertor complex of Formula I, the MTT cytotoxicity assay was repeated in the absence and presence of the pan-caspase inhibitor Z-VAD-FMK. This inhibitor works by irreversibly binding to the active site of caspases which participate in the apoptotic pathway. Z-VAD-FMK was added to a final concentration of 20 μM. The HCT116N and HCT116O cell lines were treated with 0-30 μM of the [Rh(HDPA)2chrysi]^3+ complex for 24-72 hours. In addition, each treatment was also combined with the inhibitor at a final concentration of 20 μM.
In order to determine the mechanism of action for cytotoxicity caused by a metalloinsertor complex of Formula I, the MTT cytotoxicity assay was repeated in conjunction with a panel of poly-ADP ribose polymerase (PARP) inhibitors: DPQ, 3-AB, 4-AN, and ABT-888, as described in Costantino et al., 2001, J. Med. Chem., 44, 3786-3794; Purnell et al., 1980, Biochem. J. 185, 775-777; Banasik et al., 1992, J. Biol. Chem. 267, 1569-1575; and Donawho et al., 2007, Clin. Cancer Res., 13, 2728-2737, the entire contents of all of which are incorporated herein by reference. […]
(In general: Tetrazolium assays rely on reduction of a dye to a coloured formazan, in cell work by metabolically active cells.)

For data set [1], the system named is HCT116N and HCT116O cells. Put plainly: Cell cycle distribution flow cytometry assay (PI). The format is cell-based, human. The note with it: 20 μM, 24 and 48 hours. The procedure:
Cells were harvested from adherent culture by trypsinization and washed with cold PBS. The resultant pellet was resuspended in PBS (chilled to 4° C.), and ice-cold ethanol was added dropwise to a final concentration of 70% (v/v), with continuous gentle agitation. Cells were fixed at 4° C. for 30 minutes and stored for up to one week. Prior to analysis, the fixed cells in 70% ethanol were diluted 1:3 in cold PBS and centrifuged at 1,400×g for 5 minutes. The resultant pellet was washed twice and resuspended in ice-cold PBS. Ribonuclease was added to a final concentration of 30 μg/mL and the cells were incubated overnight at 4° C. The next day propidium iodide was added to a final concentration of 20 μg/mL and cells were analyzed by flow cytometry. Data analysis was performed using the FloJo software package (v 8.7.1).
In general terms: Flow cytometry measures light scatter and fluorescence of single cells or particles in a stream.

Take [Rh(HDPA)2chrysi]^3+: the “number of viable HCT116N cells, % of untreated controls” value in the data set on HCT116N cells (20 μM) is 80±5.2%. In addition, in the data set with HCT116N cells (30 μM metal complex, with Z-VAD-FMK at 20 M (so in the source)), the “cell viability HCT116N with caspase inhibitor” value was 52±9.8%. The “cell viability HCT116N” value in the data set with HCT116N cells (30 μM metal complex, without inhibitor) turned out to be 63±5.7%. Also, in data set [1], the “effect on the cell cycle” value is “disruption of the cell cycle”.
